# Experimental data published in US20230234943A1, “TREX1 INHIBITORS AND USES THEREOF” (Tempest Therapeutics, Inc., priority 2020, published 2023).
# Biological target: T1, Human TREX1 enzyme (amino acids 1-242) (Homo sapiens, UniProt Q9NSU2)
# T1 construct: Human TREX1 enzyme (amino acids 1-242)
# T1 sequence (Q9NSU2 1-242): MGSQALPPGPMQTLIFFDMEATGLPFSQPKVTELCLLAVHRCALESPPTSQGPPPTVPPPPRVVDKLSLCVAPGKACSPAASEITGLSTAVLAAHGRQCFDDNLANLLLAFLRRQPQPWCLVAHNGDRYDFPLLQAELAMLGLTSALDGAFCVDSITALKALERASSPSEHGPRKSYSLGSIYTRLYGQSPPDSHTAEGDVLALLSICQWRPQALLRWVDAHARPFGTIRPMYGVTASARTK
# Experiment: Human TREX1 enzymatic assay with dsDNA native oligonucleotide (Picogreen fluorescence)
# Assay type: biochemical
# Settings: 2 mM dithiothreitol in assay buffer; 50 nM dsDNA oligonucleotide; 30 min preincubation at 25° C.; read-out: TREX1/Human + DTT IC50 AVG
# Method in brief: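 Remaining dsDNA quantified by Picogreen fluorescence after EDTA quench, with no-enzyme and DMSO wells as controls. Reactions used 50 nM annealed oligonucleotide for 5–15 min at 25 °C, after a 30 min compound–enzyme preincubation (0.8–0.16 nM TREX1; 2% DMSO; pH 7.7 Tris, 5 mM MgCl2).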
row,SMILES,IC50 [µM]
1,"COc1cc(-c2nc3ccc(-c4ccccn4)cc3n2C2(C)COC2)c(F)c(O)c1O [Example 182, 3-fluoro-6-methoxy-4-[1-(3-methyloxetan-3-yl)-6-(pyridin-2-yl)-1H-1,3-benzodiazol-2-yl]benzene-1,2-diol]",0.1 to 1
2,"COc1cc(-c2nc3ccc(N4CCN(C)CC4)cc3n2C2COC2)cc(O)c1O [Example 51, 3-methoxy-5-(6-(4-methylpiperazin-1-yl)-1-(oxetan-3-yl)-1H-benzo[d]imidazol-2-yl)benzene-1,2-diol]",> 100
3,"COc1cc(-c2nc3cc(N4CCC(N5CCCCC5)CC4)ccc3[nH]2)cc(O)c1O [Example 160, 5-(5-([1,4′-bipiperidin]-1′-yl)-1H-benzo[d]imidazol-2-yl)-3-methoxybenzene-1,2-diol]",> 100
4,"COc1cc(-c2nc3ccccc3n2C2COC2)c(C)c(O)c1O [Example 1, 6-methoxy-3-methyl-4-(1-(oxetan-3-yl)-1H-benzo[d]imidazol-2-yl)benzene-1,2-diol]",10 to 100
5,"COc1cc(-c2nc3ccccc3n2C2CCOCC2)c(C)c(O)c1O [Example 149, 6-methoxy-3-methyl-4-(1-(tetrahydro-2H-pyran-4-yl)-1H-benzo[d]imidazol-2-yl)benzene-1,2-diol]",10 to 100
6,"COc1cc(-c2nc3ccc(N4CCOCC4)cc3n2C)cc(O)c1O [Example 63, 3-methoxy-5-(1-methyl-6-morpholino-1H-benzo[d]imidazol-2-yl)benzene-1,2-diol]",10 to 100
7,"COc1cc(-c2nc3cc(N4CCN(C(=O)c5ccncc5)CC4)ccc3[nH]2)cc(O)c1O [Example 96, (4-(2-(3,4-dihydroxy-5-methoxyphenyl)-1H-benzo[d]imidazol-5-yl)piperazin-1-yl)(pyridin-4-yl)methanone]",10 to 100
8,"COc1cc(-c2nc3cc(NCCO)ccc3[nH]2)cc(O)c1O [Example 319, 5-(5-((2-hydroxyethyl)amino)-1H-benzo[d]imidazol-2-yl)-3-methoxybenzene-1,2-diol]",1 to 10
9,"COc1cc(-c2nc3ccncc3n2C2COC2)cc(O)c1O [Example 43, 3-methoxy-5-(3-(oxetan-3-yl)-3H-imidazo[4,5-c]pyridin-2-yl)benzene-1,2-diol]",10 to 100
10,"O=C(O)c1cc(-c2nc3ccncc3[nH]2)ccc1O [Example 71, 2-hydroxy-5-(3H-imidazo[4,5-c]pyridin-2-yl)benzoic acid]",10 to 100
11,"COc1cc(-c2nc3ccc(C(=O)Nc4ccncc4)cc3n2C2(C)COC2)c(F)c(O)c1O [Example 248, 2-(2-fluoro-3,4-dihydroxy-5-methoxyphenyl)-1-(3-methyloxetan-3-yl)-N-(pyridin-4-yl)-1H-1,3-benzodiazole-6-carboxamide]",≤ 0.1
12,"CCNC(=O)c1ccc2nc(-c3cc(OC)c(O)c(O)c3F)n(C3(C)COC3)c2c1 [Example 262, N-ethyl-2-(2-fluoro-3,4-dihydroxy-5-methoxyphenyl)-1-(3-methyloxetan-3-yl)-1H-benzo[d]imidazole-6-carboxamide]",≤ 0.1
13,"COc1cc(-c2nc3ccc(CO)cc3n2C2(C)COC2)c(F)c(O)c1O [Example 281, 3-fluoro-4-(6-(hydroxymethyl)-1-(3-methyloxetan-3-yl)-1H-benzo[d]imidazol-2-yl)-6-methoxybenzene-1,2-diol]",0.1 to 1
14,"COc1cc(-c2nc3ccc(C(=O)NC4CCNCC4)cc3n2C2(C)COC2)c(F)c(O)c1O [Example 255, 2-(2-fluoro-3,4-dihydroxy-5-methoxyphenyl)-1-(3-methyloxetan-3-yl)-N-(piperidin-4-yl)-1H-benzo[d]imidazole-6-carboxamide]",0.1 to 1
15,"COc1cc(-c2nc3ccc(C(=O)NC4COC4)cc3n2C2(C)COC2)c(F)c(O)c1O [Example 254, 2-(2-fluoro-3,4-dihydroxy-5-methoxyphenyl)-1-(3-methyloxetan-3-yl)-N-(oxetan-3-yl)-1H-benzo[d]imidazole-6-carboxamide]",≤ 0.1
16,"COc1ccc(C(=O)N2CCN(c3ccc4[nH]c(-c5cc(O)c(O)c(OC)c5)nc4c3)CC2)cc1 [Example 85, (4-(2-(3,4-dihydroxy-5-methoxyphenyl)-1H-benzo[d]imidazol-5-yl)piperazin-1-yl)(4-methoxyphenyl)methanone]",1 to 10
17,"COc1cc(-c2nc3ccc(-c4nnco4)cc3n2C2(C)COC2)c(F)c(O)c1O [Example 238, 3-fluoro-6-methoxy-4-[1-(3-methyloxetan-3-yl)-6-(1,3,4-oxadiazol-2-yl)-1H-1,3-benzodiazol-2-yl] benzene-1,2-diol]",≤ 0.1
18,"Cc1c(-c2nc3ccccc3n2C2CCC2)cc(OC(C)C)c(O)c1O [Example 290, 4-(1-cyclobutyl-1H-1,3-benzodiazol-2-yl)-3-methyl-6-(propan-2-yloxy)benzene-1,2-diol]",10 to 100

row,SMILES,IC50 [µM]
1,"COc1cc(-c2nc3cc(S(=O)(=O)Nc4ccccc4)ccc3n2C2COC2)cc(O)c1O [Example 46, 2-(3,4-dihydroxy-5-methoxyphenyl)-1-(oxetan-3-yl)-N-phenyl-1H-benzo[d]imidazole-5-sulfonamide]",10 to 100
2,"COc1cc(-c2nc3cc(N4CCN(C(=O)c5ccc6ccccc6c5)CC4)ccc3[nH]2)cc(O)c1O [Example 81, (4-(2-(3,4-dihydroxy-5-methoxyphenyl)-1H-benzo[d]imidazol-5-yl)piperazin-1-yl)(naphthalen-2-yl)methanone]",> 100
3,"Cc1cc(C(=O)O)c(O)cc1-c1nc2ccccc2n1C1COC1 [Example 171, 2-hydroxy-5-methyl-4-(1-(oxetan-3-yl)-1H-benzo[d]imidazol-2-yl)benzoic acid]",> 100
4,"O=C(O)c1cc(F)c(-c2nc3ccncc3[nH]2)cc1O [Example 120, 5-fluoro-2-hydroxy-4-(3H-imidazo[4,5-c]pyridin-2-yl)benzoic acid]",10 to 100
5,"COC(=O)c1cc(-c2nc3cc(N4CCC4)ccc3[nH]2)cc(OC)c1O [Example 196, methyl 5˜(5-(azetidin-1-yl)-1H-benzo[d]imidazol-2-yl)-2-hydroxy-3-methoxybenzoate]",> 100
6,"COc1cc(-c2nc3cc(N(C)C)ccc3[nH]2)cc(O)c1O [Example 92, 5-(5-(dimethylamino)-1H-benzo[d]imidazol-2-yl)-3-methoxybenzene-1,2-diol]",> 100
7,"COc1cc(-c2nc3cc(N4CCN(Cc5ccc6ccccc6c5)CC4)ccc3[nH]2)cc(O)c1O [Example 82, 3-methoxy-5-(5-(4-(naphthalen-2-ylmethyl)piperazin-1-yl)-1H-benzo[d]imidazol-2-yl)benzene-1,2-diol]",> 100
8,"COc1cc(-c2nc3cnccc3n2C2COC2)cc(O)c1O [Example 47, 3-methoxy-5-(1-(oxetan-3-yl)-1H-imidazo[4,5-c]pyridin-2-yl)benzene-1,2-diol]",10 to 100
9,"COc1cc(-c2nc3ccc(-c4ccc(F)cn4)cc3n2C2(C)COC2)c(F)c(O)c1O [Example 269, 3-fluoro-4-(6-(5-fluoropyridin-2-yl)-1-(3-methyloxetan-3-yl)-1H-benzo[d]imidazol-2-yl)-6-methoxybenzene-1,2-diol]",≤ 0.1
10,"COc1cc(-c2nc3c(NC(C)=O)cccc3n2C2(C)COC2)c(F)c(O)c1O [Example 209, N-[2-(2-fluoro-3,4-dihydroxy-5-methoxyphenyl)-1-(3-methyloxetan-3-yl)-1H-1,3-benzodiazol-4-yl]acetamide]",0.1 to 1
11,"COc1cc(-c2nc3cnccc3n2C)cc(O)c1O [Example 45, 3-methoxy-5-(1-methyl-1H-imidazo[4,5-c]pyridin-2-yl)benzene-1,2-diol]",> 100
12,"COc1cc(-c2nc3c(-c4ccccc4)ncnc3[nH]2)cc(O)c1O [Example 37, 3-methoxy-5-(6-phenyl-9H-purin-8-yl)benzene-1,2-diol]",> 100
13,"CNC(=O)c1ccc2nc(-c3cc(OC)c(O)c(O)c3F)n(C3(C)CCC3)c2c1 [Example 310, 2-(2-fluoro-3,4-dihydroxy-5-methoxyphenyl)-N-methyl-1-(1-methylcyclobutyl)-1H-benzo[d]imidazole-6-carboxamide]",≤ 0.1
14,"COc1cc(-c2nc3ccc(-c4ccnn4C)cc3n2C2(C)COC2)c(F)c(O)c1O [Example 266, 3-fluoro-6-methoxy-4-(6-(1-methyl-1H-pyrazol-5-yl)-1-(3-methyloxetan-3-yl)-1H-benzo[d]imidazol-2-yl)benzene-1,2-diol]",1 to 10
15,"COc1cc(-c2nc3cc(N4CCN(C(=O)c5ccccc5C)CC4)ccc3[nH]2)cc(O)c1O [Example 99, (4-(2-(3,4-dihydroxy-5-methoxyphenyl)-1H-benzo[d]imidazol-5-yl)piperazin-1-yl)(o-tolyl)methanone]",1 to 10
16,"C=CCCC(=O)N1CCN(c2ccc3c(c2)nc(-c2cc(O)c(O)c(OC)c2)n3C(=O)CCC=C)CC1 [Example 34, 1-(4-(2-(3,4-dihydroxy-5-methoxyphenyl)-1-(pent-4-enoyl)-1H-benzo[d]imidazol-5-yl)piperazin-1-yl)pent-4-en-1-one]",10 to 100
17,"COc1ccccc1C(=O)N1CCN(c2ccc3[nH]c(-c4cc(O)c(O)c(OC)c4)nc3c2)CC1 [Example 86, (4-(2-(3,4-dihydroxy-5-methoxyphenyl)-1H-benzo[d]imidazol-5-yl)piperazin-1-yl)(2-methoxyphenyl)methanone]",1 to 10
18,"COc1cc(-c2nc3c(Cl)c(Cl)ccc3n2C2(C)COC2)cc(O)c1O [Example 301, 5-(4,5-dichloro-1-(3-methyloxetan-3-yl)-1H-benzo[d]imidazol-2-yl)-3-methoxybenzene-1,2-diol]",0.1 to 1
